In patent US11352391B2, “Compositions for inducing urinary voiding and defecation” (Dignify Therapeutics, LLC, priority 2017, dated 2022):
Where a SMILES comes first, the peptide text is derived from it.

Legend:
[1] = Pharmacokinetics in rat plasma after cassette IV bolus dosing; details: Sprague-Dawley, in vivo, iv
Experimental: The concentrations of compounds (SEQ ID NOS: 1-11) were measured in rat plasma after intravenous (IV) bolus dosing to determine pharmacokinetic profiles of individual compounds.
Animal preparation: In vivo studies were performed in anesthetized adult Sprague Dawley rats. Rats were anesthetized with urethane (1.2-1.4 g/kg subcutaneous injection). Surgical procedures were then performed with the addition of isoflurane anesthesia (0.05-1.5% in 02) as needed. A venous cannula was inserted into the jugular vein for intravenous (IV) administration of compounds.
In vivo dosing and plasma sampling: Compounds were divided into two groups (soluble and insoluble). Each group was dosed as a cassette in which four compounds (100 μg/kg each compound) were combined into a single IV bolus injection to anesthetized adult Sprague-Dawley rats. Soluble compounds were dissolved in saline. Insoluble compounds were dissolved in a 10% ethanol/saline solution. Rats were cassette dosed based on weight using 0.1 mg/mL solutions of individual compounds. Blood samples (700 μL) were collected using a carotid artery cannula into EDTA tubes containing ascorbic acid (final concentration 1%), and plasma was isolated.
Bioanalytical assay: A reversed-phase HPLC with Turbo Ion Spray MS/MS detection method was developed for bioanalysis. Mass spec transition and settings were individually optimized for each compound and then compounds were cassetted for HPLC method development and optimization. [^13C9; ^15N] [Lys5,MeLeu9,Nle10]-NKA(4-10) was used as an internal standard (IS). Analyte-to-IS peak area ratios for individual compounds were used to create linear calibration curves (1-20 ng/mL) using 1/×2 weighted least-squares regression analysis for evaluation of method linearity, precision and accuracy. For plasma concentration measurements, plasma samples were spiked with IS, processed by extraction, and analyzed using LC-MS/MS. Positive (M+H)+ ions for individual compounds and IS were monitored in MRM mode.

[2] = target: recombinant hNK1R expressed in CHO cells (Homo sapiens, UniProt P25103); test: Intracellular calcium mobilization (FLIPR) in CHO-hNK1 cells; type: cell-based; details: calcium mobilization, CHO-hNK1 cells; read-out: hNK1 EC50
Experimental: (§1) CHO-hNK1 and CHO-hNK2 cells were seeded into black walled clear-bottom 384-well plates) at a density of 10,000 and 15,000 cells per well in 50 μL culture media, respectively, and grown overnight at 37° C. in a humidified CO2-incubator. Cells were washed in washing buffer using the EMBLA 384 instrument, leaving 20 μL of buffer per well after the final aspiration. Cells were then incubated at 37° C. with the cytoplasmic Ca2+ indicator Fluo-4 AM (final concentration 1 μM) in assay buffer (20 mM HEPES, 145 mM NaCl, 5 mM KCl, 5.5 mM glucose, 1 mM MgCl2 and 2 mM CaCl2, pH 7.4, 0.05% Pluronic F-127 and 0.1% BSA) containing 2.5 mM probenecid for […] (cell loading). Cells were then washed 3 times in washing buffer (20 mM HEPES, 145 mM NaCl, 5 mM KCl, 5.5 mM glucose, 1 mM MgCl2 and 2 mM CaCl2, pH 7.4 and 2.5 mM probenecid) using the EMBLA 384 instrument, leaving 30 μL of buffer in each well after the last wash. Loaded cell plates were transferred to the FLIPR machine and calcium responses were monitored as described below. A dual read-out FLIPR protocol was used, allowing for characterization of both agonist and antagonist profiles. For quality control, in each compound plate the signal was monitored by evaluating the responses to the reference standards (NKA and Substance P).
(§2) Concentration response curves of compounds were run in duplicate on two different occasions from the same stock solutions. Test solutions were prepared from 10 mM stock solutions in DMSO and 1 μL of each solution was stamped into V-bottom assay plates containing 49 μL assay buffer. The final concentration of DMSO was 0.5% in each well.

[3] = target: human NK1 Receptor (hNK1R) (Homo sapiens, UniProt P25103); test: [3H]-septide radioligand competition binding to human recombinant NK1Rs (CHO-hNK1 membranes); details: displacement of 5.0 nM [3H]-septide, CHO-hNK1 membranes; read-out: hNK1 binding Ki
Experimental: (§3) After removal of the supernatant the cell pellet was washed and collected by re-suspension in PBS and centrifugation.
(§4) Frozen pellets were thawed and homogenized in 10 volumes (w/v) of membrane preparation buffer (50 mM HEPES pH 7.4, 1 mM EDTA, 50 μg/mL bacitracin and protease inhibitors) using a Polytron Ultraturrax (twice for 15 s per cycle). […] Protein concentration was determined using BioRad Protein Assay (Milan, Italy) with a BSA standard curve.

[4] = target: T1, human NK2 Receptor (hNK2R) (Homo sapiens, UniProt P21452); test: [125I]-NKA radioligand competition binding to human recombinant NK2Rs (CHO-hNK2 membranes)
T1 sequence (P21452 1-398): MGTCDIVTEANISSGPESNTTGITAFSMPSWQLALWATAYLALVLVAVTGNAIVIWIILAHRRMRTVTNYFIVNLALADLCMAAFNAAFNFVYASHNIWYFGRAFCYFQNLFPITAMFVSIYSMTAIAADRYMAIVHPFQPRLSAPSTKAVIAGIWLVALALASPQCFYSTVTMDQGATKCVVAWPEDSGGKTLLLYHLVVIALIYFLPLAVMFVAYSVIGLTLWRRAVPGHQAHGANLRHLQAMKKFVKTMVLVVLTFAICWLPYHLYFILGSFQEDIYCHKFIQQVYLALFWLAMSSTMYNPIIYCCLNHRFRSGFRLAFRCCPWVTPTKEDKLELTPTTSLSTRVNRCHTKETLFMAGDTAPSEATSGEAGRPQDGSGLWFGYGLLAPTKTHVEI
Experimental: as §3, §4

anesthetized dog = test: Colorectal pressure manometry in anesthetized dog; type: in vivo
Experimental: Animal preparation: Naïve beagle dogs were fasted for 12-24 hours and received a warm water enema the night prior to, and the morning of, the experiment to clear the rectum and lower colon of feces. The day of the experiment, a 20 gauge IV catheter (Terumo Surflo) was placed in the cephalic vein for anesthetic induction (propofol, 10 mg/kg; IV) and delivery of IV fluids (5-10 ml/kg/hr) and compounds. The sedated dog was intubated with a 5-6 Fr tracheal tube and was maintained on 2-3% isoflurane via a ventilator (15-25 breaths/min; tidal volume […]) for the remainder of the experiment.
Bowel contractility: For colorectal pressure manometry, an ˜3 inch balloon catheter was inserted into the rectum and secured to the tail with tape. This catheter was connected via a three-way stopcock to a pressure transducer (UTAH MEDICAL PRODUCTS; DelTran II) for pressure recording. Data were recorded using PowerLab/8SP acquisition system using LabChart software (version 7.3.7; ADINSTRUMENTS, Australia). Arterial pressure, ECG, temperature and blood oxygen saturation (spO2) were monitored throughout the experiment (MEDTRONIC LIFEPAK12). Dogs were recovered in a quiet room under veterinary supervision.

[5] = Saline solubility of heptapeptides; type: physicochemical
Experimental: Heptapeptides A-K shown below in Table 1 (SEQ ID NOs: 1-11) were synthesized according to standard Fmoc-mediated solid-phase techniques and purified under typical C18 reverse-phase conditions.
Compounds D-K were considered to be insoluble in saline (<1 mg/mL).

[6] = target: T2, recombinant hNK2R expressed in CHO cells (Homo sapiens, UniProt P21452); test: Intracellular calcium mobilization (FLIPR) in CHO-hNK2 cells; type: cell-based
T2 sequence (P21452 1-398): T1 sequence (P21452 1-398)
Experimental: as §1, §2

Chain of recombinant hNK1R expressed in CHO cells (P25103 whole entry): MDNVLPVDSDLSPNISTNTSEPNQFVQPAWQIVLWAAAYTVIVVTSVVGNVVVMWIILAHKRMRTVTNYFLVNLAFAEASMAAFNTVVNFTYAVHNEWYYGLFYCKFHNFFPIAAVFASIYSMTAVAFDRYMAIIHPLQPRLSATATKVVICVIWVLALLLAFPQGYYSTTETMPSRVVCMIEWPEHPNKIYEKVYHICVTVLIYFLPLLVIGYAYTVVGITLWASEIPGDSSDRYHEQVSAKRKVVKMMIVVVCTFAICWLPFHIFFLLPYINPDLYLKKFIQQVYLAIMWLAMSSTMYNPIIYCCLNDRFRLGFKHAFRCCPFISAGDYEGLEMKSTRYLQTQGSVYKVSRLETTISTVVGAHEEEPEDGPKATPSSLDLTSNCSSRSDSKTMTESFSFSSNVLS
Chain of human NK1 Receptor (hNK1R) (P25103 whole entry): as above

`CCCC[C@H](NC(=O)[C@H](CC(C)C)NC(=O)CCNC(=O)[C@@H](NC(=O)[C@H](Cc1ccccc1)NC(=O)[C@H](CCCCN)NC(=O)[C@@H](N)CC(=O)O)C(C)C)C(N)=O` [Compound G, Asp-Lys-Phe-Val-(β-Ala)-Leu-Nle-NH2] (HELM PEPTIDE1{D.K.F.V.[bAla].L.[Nle].[am]}$$$$V2.0; N-terminus assumed) showed a half-life [1] of 3.3 to 4.7 min, an EC50 [2] of 78.2 nM and a Ki [3] of 3090 nM. For the same compound, the Ki ([4]; displacement of 0.1 nM [125I]-NKA, CHO-hNK2 membranes, read-out: hNK2 binding Ki) was 16.4 nM, the hNK2 selectivity ratio ([4]; ratio of Kis hNK1R/hNK2R) was 188.58 and the “duration of colorectal pressure response” value (anesthetized dog; IV bolus (B and E 3 μg/kg; G 3, 30 and 66 ug/kg)) was “approximately 5 minutes”. The “onset of increase in colorectal pressure” value (anesthetized dog; IV bolus (E 3 μg/kg; G 3, 30 and 66 ug/kg)) was ≤ 1 min, the solubility [5] was < 1000 µg/mL and the EC50 ([6]; calcium mobilization, CHO-hNK2 cells, read-out: hNK2 EC50) was 3 nM. It also gave a hNK2 selectivity ratio ([6]; ratio of EC50s hNK1R/hNK2R) of 26.
